Results as given in patent US12281122B1, “PI3K inhibitors” (Cogent Biosciences, Inc., priority 2023, dated 2025).

Columns and labels:
[1] = test system: T47D (PI3Kα-H1047R) cell line; test: HTRF phospho-AKT(S473) cell assay in T47D cells; type: cell-based, human
Procedure, shortened: (§1)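 Cells plated overnight (T47D in RPMI/10% FBS/0.2 units/mL insulin; SKBR3 in McCoy's 5A/10% FBS), then given 12-point 1:3 compound series (top 5 μM T47D, 10 μM SKBR3; ≤0.5% DMSO) for 2 h at 37° C. SKBR3 stimulated with 70 ng/ml PDGF-BB for final 15 min. Lysate pAKT(S473) by HTRF; IC50 calculated.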

[2] = test system: SKBR3 (PI3Kα-Wild Type) cell line; test: HTRF phospho-AKT(S473) cell assay in SKBR3 cells; type: cell-based, human
Procedure, shortened: as §1

[3] = Homo sapiens; T47D (PI3Kα-H1047R) cells, HTRF phospho-AKT(S473), 2 hours compound incubation
[4] = Homo sapiens, SK-BR-3; SKBR3 (PI3Kα-Wild Type) cells, HTRF phospho-AKT(S473), 2 hours compound incubation, PDGF-BB stimulated
[5] = Homo sapiens; HTRF phospho-AKT(S473), T47D (PI3Kα-H1047R) cells, 2 hours compound incubation
[6] = Homo sapiens, SK-BR-3; HTRF phospho-AKT(S473), SKBR3 (PI3Kα-Wild Type) cells, 2 hours compound incubation, PDGF-BB stimulated

SMILES | IC50 [1, 3] [nM] | IC50 [2, 4] [nM] | IC50 [1, 5] [nM] | IC50 [2, 6] [nM]
Cc1cc([C@@H](C)Nc2ccc(Cl)nc2C(=O)NS(C)(=O)=O)c2nc(N3Cc4cn(CCO)nc4C3)n(C)c(=O)c2c1 [Compound 149, (R)-6-chloro-3-((1-(2-(2-(2-hydroxyethyl)-2,6-dihydropyrrolo[3,4-c]pyrazol-5(4H)-yl)-3,6-dimethyl-4-oxo-3,4-dihydroquinazolin-8-yl)ethyl)amino)-N-(methylsulfonyl) picolinamide] | 250 to 500 | 1000 to 5000 | – | –
CC(=O)N1CCN(c2ccc(-c3nc4c([C@@H](C)Nc5ccc(Cl)nc5C(=O)NS(C)(=O)=O)cc(C)cc4c(=O)n3C)cc2F)CC1 [Compound 778, (R)-3-((1-(2-(4-(4-acetylpiperazin-1-yl)-3-fluorophenyl)-3,6-dimethyl-4-oxo-3,4-dihydroquinazolin-8-yl)ethyl)amino)-6-chloro-N-(methylsulfonyl) picolinamide] | – | – | < 250 | 1000 to 5000
Cc1cc([C@@H](C)Nc2ccc(Cl)nc2C(=O)NS(C)(=O)=O)c2nc(N3C[C@@H]4[C@H](C3)[C@H]4c3cnn(C)c3)n(C)c(=O)c2c1 [Compound 336, 6-chloro-3-(((R)-1-(3,6-dimethyl-2-((1R,5S,6S)-6-(1-methyl-1H-pyrazol-4-yl)-3-azabicyclo[3.1.0]hexan-3-yl)-4-oxo-3,4-dihydroquinazolin-8-yl)ethyl)amino)-N-(methylsulfonyl) picolinamide] | < 250 | 1000 to 5000 | – | –
CCn1c(N2C[C@@H]3[C@H](C2)[C@H]3c2cnc(C)cn2)nc2c([C@@H](C)Nc3ccc(Cl)nc3C(=O)NS(C)(=O)=O)cc(C)cc2c1=O [Compound 572, 6-chloro-3-(((R)-1-(3-ethyl-6-methyl-2-((1R,5S,6R)-6-(5-methylpyrazin-2-yl)-3-azabicyclo[3.1.0]hexan-3-yl)-4-oxo-3,4-dihydroquinazolin-8-yl)ethyl)amino)-N-(methylsulfonyl) picolinamide] | – | – | < 250 | 1000 to 5000
Cc1cc([C@@H](C)Nc2ccc(Cl)nc2C(=O)NS(C)(=O)=O)c2nc(N3C[C@@H]4CC(n5cc(C)cn5)C[C@H]4C3)n(C)c(=O)c2c1 (single isomer, unassigned) [Compound 367, 6-chloro-3-(((R)-1-(3,6-dimethyl-2-((3aR*,6aR*)-5-(4-methyl-1H-pyrazol-1-yl)hexahydrocyclopenta [c]pyrrol-2(1H)-yl)-4-oxo-3,4-dihydroquinazolin-8-yl)ethyl)amino)-N-(methylsulfonyl) picolinamide] | < 250 | ≥ 5000 | – | –
Cc1cc([C@@H](C)Nc2ccc(Cl)nc2C(=O)NS(C)(=O)=O)c2nc(N3C[C@H]4C[C@@H]3CN4c3ncc(Cl)cn3)n(C)c(=O)c2c1 [Compound 666, 6-chloro-3-(((R)-1-(2-((1R,4R)-5-(5-chloropyrimidin-2-yl)-2,5-diazabicyclo [2.2.1]heptan-2-yl)-3,6-dimethyl-4-oxo-3,4-dihydroquinazolin-8-yl)ethyl)amino)-N-(methylsulfonyl) picolinamide] | – | – | 250 to 500 | ≥ 5000
Cc1cc([C@@H](C)Nc2ccc(Cl)nc2C(=O)NS(C)(=O)=O)c2nc(-c3cnn(C)c3)n(C)c(=O)c2c1 [Compound 288, (R)-6-chloro-3-((1-(3,6-dimethyl-2-(1-methyl-1H-pyrazol-4-yl)-4-oxo-3,4-dihydroquinazolin-8-yl)ethyl)amino)-N-(methylsulfonyl) picolinamide] | < 250 | 1000 to 5000 | – | –
Cc1cc([C@@H](C)Nc2ccc(Cl)nc2C(=O)NS(C)(=O)=O)c2nc(N3C[C@@H]4CC4(c4cnc(C)nc4)C3)n(C)c(=O)c2c1 (relative stereo) [Compound 752, 6-chloro-3-(((R)-1-(3,6-dimethyl-2-((1R*,5R*)-1-(2-methylpyrimidin-5-yl)-3-azabicyclo[3.1.0]hexan-3-yl)-4-oxo-3,4-dihydroquinazolin-8-yl)ethyl)amino)-N-(methylsulfonyl) picolinamide] | – | – | 500 to 1000 | ≥ 5000
Cc1cc([C@@H](C)Nc2ccc(Cl)nc2C(=O)NS(C)(=O)=O)c2nc(N3Cc4cncnc4C3)n(C)c(=O)c2c1 [Compound 517, (R)-6-chloro-3-((1-(2-(5,7-dihydro-6H-pyrrolo [3,4-d]pyrimidin-6-yl)-3,6-dimethyl-4-oxo-3,4-dihydroquinazolin-8-yl)ethyl)amino)-N-(methylsulfonyl) picolinamide] | – | – | 250 to 500 | 1000 to 5000
Cc1cc([C@@H](C)Nc2ccc(Cl)nc2C(=O)NS(C)(=O)=O)c2nc(N3Cc4cn(-c5ccccc5C)nc4C3)n(C)c(=O)c2c1 [Compound 189, (R)-6-chloro-3-((1-(3,6-dimethyl-4-oxo-2-(2-(o-tolyl)-2,6-dihydropyrrolo[3,4-c]pyrazol-5(4H)-yl)-3,4-dihydroquinazolin-8-yl)ethyl)amino)-N-(methylsulfonyl) picolinamide] | 250 to 500 | ≥ 5000 | – | –
Cc1cc([C@@H](C)Nc2ccc(Cl)nc2C(=O)NS(C)(=O)=O)c2nc(N3C[C@@H]4[C@H](C3)[C@H]4n3cc(F)c(C)n3)n(C)c(=O)c2c1 [Compound 543, 6-chloro-3-(((R)-1-(2-((1R,5S,6S)-6-(4-fluoro-3-methyl-1H-pyrazol-1-yl)-3-azabicyclo[3.1.0]hexan-3-yl)-3,6-dimethyl-4-oxo-3,4-dihydroquinazolin-8-yl)ethyl)amino)-N-(methylsulfonyl) picolinamide] | – | – | 250 to 500 | ≥ 5000
Cc1cc([C@@H](C)Nc2ccc(Cl)nc2C(=O)NS(C)(=O)=O)c2nc(N3CCC(c4nn(C)cc4F)CC3)n(C3CC3)c(=O)c2c1 [Compound 410, (R)-6-chloro-3-((1-(3-cyclopropyl-2-(4-(4-fluoro-1-methyl-1H-pyrazol-3-yl)piperidin-1-yl)-6-methyl-4-oxo-3,4-dihydroquinazolin-8-yl)ethyl)amino)-N-(methylsulfonyl) picolinamide] | 250 to 500 | ≥ 5000 | – | –
Cc1cc([C@@H](C)Nc2ccc(Cl)nc2C(=O)NS(C)(=O)=O)c2nc(N3CC[C@H](Oc4ccnnc4)C3)n(C)c(=O)c2c1 [Compound 353, 6-chloro-3-(((R)-1-(3,6-dimethyl-4-oxo-2-((S)-3-(pyridazin-4-yloxy)pyrrolidin-1-yl)-3,4-dihydroquinazolin-8-yl)ethyl)amino)-N-(methylsulfonyl) picolinamide] | 250 to 500 | 1000 to 5000 | – | –
Cc1cc([C@@H](C)Nc2ccc(Cl)nc2C(=O)NS(C)(=O)=O)c2nc(N3CCC[C@H](c4cn[nH]c4)C3)n(C)c(=O)c2c1 (mixture of isomers) [Compound 168, 3-(((R)-1-(2-((RS)-3-(1H-pyrazol-4-yl)piperidin-1-yl)-3,6-dimethyl-4-oxo-3,4-dihydroquinazolin-8-yl)ethyl)amino)-6-chloro-N-(methylsulfonyl) picolinamide] | < 250 | 1000 to 5000 | – | –
Cc1cc([C@@H](C)Nc2ccc(Cl)nc2C(=O)NS(C)(=O)=O)c2nc(N3CCC(c4ccc(F)cn4)C3)n(C)c(=O)c2c1 (stereo partly drawn) [Compound 679, 6-chloro-3-(((1R)-1-(2-(3-(5-fluoropyridin-2-yl)pyrrolidin-1-yl)-3,6-dimethyl-4-oxo-3,4-dihydroquinazolin-8-yl)ethyl)amino)-N-(methylsulfonyl) picolinamide] | – | – | 250 to 500 | 1000 to 5000
Cc1cc([C@@H](C)Nc2ccc(Cl)nc2C(=O)NS(C)(=O)=O)c2nc(-c3cnc(-c4ccn(C)n4)c(Cl)c3)n(C)c(=O)c2c1 [Compound 293, (R)-6-chloro-3-((1-(2-(5-chloro-6-(1-methyl-1H-pyrazol-3-yl)pyridin-3-yl)-3,6-dimethyl-4-oxo-3,4-dihydroquinazolin-8-yl)ethyl)amino)-N-(methylsulfonyl) picolinamide] | 250 to 500 | 1000 to 5000 | – | –
Cc1cc([C@@H](C)Nc2ccc(Cl)nc2C(=O)NS(C)(=O)=O)c2nc(N3C[C@@H]4[C@H](C3)[C@H]4c3ncn(C(C)C)n3)n(C)c(=O)c2c1 [Compound 551, 6-chloro-3-(((R)-1-(2-((1R,5S,6R)-6-(1-isopropyl-1H-1,2,4-triazol-3-yl)-3-azabicyclo[3.1.0]hexan-3-yl)-3,6-dimethyl-4-oxo-3,4-dihydroquinazolin-8-yl)ethyl)amino)-N-(methylsulfonyl) picolinamide] | – | – | < 250 | ≥ 5000
Cc1cc([C@@H](C)Nc2ccc(Cl)nc2C(=O)NS(C)(=O)=O)c2nc(N3CCC(c4c(C)nn(C)c4C)CC3)n(C)c(=O)c2c1 [Compound 226, (R)-6-chloro-3-((1-(3,6-dimethyl-4-oxo-2-(4-(1,3,5-trimethyl-1H-pyrazol-4-yl)piperidin-1-yl)-3,4-dihydroquinazolin-8-yl)ethyl)amino)-N-(methylsulfonyl) picolinamide] | < 250 | 1000 to 5000 | – | –
[2H]C([2H])([2H])n1ccc([C@H]2[C@@H]3CN(c4nc5c([C@@H](C)Nc6ccc(Cl)nc6C(=O)NS(C)(=O)=O)cc(C)cc5c(=O)n4CC)C[C@@H]32)n1 [Compound 731, 6-chloro-3-(((R)-1-(3-ethyl-6-methyl-2-((1R,5S,6R)-6-(1-(methyl-d3)-1H-pyrazol-3-yl)-3-azabicyclo[3.1.0]hexan-3-yl)-4-oxo-3,4-dihydroquinazolin-8-yl)ethyl)amino)-N-(methylsulfonyl) picolinamide] | – | – | < 250 | 1000 to 5000
